Measured values from US6706663B2, “Herbicidal 3-heterocyclic substituted benzisothiazole and benzisoxazole compounds” (Wyeth, priority 2000, dated 2004).

What was measured:
[1] = test system: ABUTH (Abutilon theophrasti); assay: Postemergence herbicidal evaluation; format: in vivo, Medic.
In short: (§1)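 Seedlings grown for about two weeks were sprayed postemergence and then kept under standard greenhouse care. Injury was rated visually 4–5 weeks after treatment on a 0–9 scale against untreated controls, and ratings from repeat tests were averaged.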

[2] = test system: AMBEL (Ambrosia artemisifolia); assay: Postemergence herbicidal evaluation; format: in vivo, L.
In short: as §1

[3] = test system: CASOB (Cassia obtusifolia); assay: Postemergence herbicidal evaluation; format: in vivo, L.
In short: as §1

[4] = test system: CHEAL (Chenopodium album); assay: Postemergence herbicidal evaluation; format: in vivo, L.
In short: as §1

[5] = test system: IPOHE (Ipomoea hederacea); assay: Postemergence herbicidal evaluation; format: in vivo, (L.) Jacq.
In short: as §1

[6] = test system: ECHCG (Echinochloa crus-galli); assay: Postemergence herbicidal evaluation; format: in vivo, (L.) Beau
In short: as §1

ORYSAT (Rice, Tebonnet) [7] = assay: Postemergence herbicidal evaluation; format: in vivo, Oryza sativa, (L.) Tebonnet
In short: as §1

[8] = test system: TRZAWR (Wheat, Winter, cv Riband); assay: Postemergence herbicidal evaluation; format: in vivo, Triticum aestivum
In short: as §1

ZEAMX (Corn, Field) = assay: Postemergence herbicidal evaluation; format: in vivo, Zea mays, L.
In short: as §1

[9] = test system: ABUTH (Abutilon theophrasti); assay: Preemergence herbicidal evaluation; format: in vivo, Medic.; settings: preemergence, rated 4-5 weeks after treatment
[10] = test system: AMBEL (Ambrosia artemisifolia); assay: Preemergence herbicidal evaluation; format: in vivo, L.; settings: preemergence, rated 4-5 weeks after treatment
In short: (§2)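 Greenhouse preemergence test: freshly planted cups were sprayed once with an aqueous acetone solution of compound. Injury was judged visually on a 0–9 scale relative to a control, four to five weeks later.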

[11] = test system: CASOB (Cassia obtusifolia); assay: Preemergence herbicidal evaluation; format: in vivo, L.; settings: preemergence, rated 4-5 weeks after treatment
In short: as §2

[12] = test system: CHEAL (Chenopodium album); assay: Preemergence herbicidal evaluation; format: in vivo, L.; settings: preemergence, rated 4-5 weeks after treatment
In short: as §2

ORYSAT (Rice, Tebonnet) [13] = assay: Preemergence herbicidal evaluation; format: in vivo, Oryza sativa, (L.) Tebonnet; settings: preemergence, rated 4-5 weeks after treatment
[14] = test system: TRZAWR (Wheat, Winter, cv Riband); assay: Preemergence herbicidal evaluation; format: in vivo, Triticum aestivum; settings: preemergence, rated 4-5 weeks after treatment
In short: as §2

[15] = test system: ECHORC (Echinochloa oryzoides); assay: Flooded paddy, preemergence weed control; format: in vivo, Echinochloa oryzoides (Ard.) Fritsch.; settings: rated 3-4 weeks after treatment, 0-9 rating scale
In short: (§3)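 Visual 0-9 rating versus control, scoring stand, vigor, malformation, size, chlorosis and overall appearance. Silt loam soil, propagules in top 0.5 cm; flood depth 1.5–3 cm held for the whole test; greenhouse.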

[16] = test system: CYPSE (Cyperus serotinus); assay: Flooded paddy, preemergence weed control; format: in vivo, Rottb.; settings: rated 3-4 weeks after treatment, 0-9 rating scale
In short: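 Seeds or propagules were planted 0.5 cm deep in silt loam and flooded to 1.5–3 cm. Compounds in 50/50 v/v aqueous/acetone were pipetted into the flood water at about 0.0080 to 0.1250 kg/ha. After 3–4 weeks in the greenhouse, effect was rated visually on a 0–9 scale versus untreated control.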

[17] = test system: SAGPY (Sagittaria pygmaea); assay: Flooded paddy, preemergence weed control; format: in vivo, L.; settings: rated 3-4 weeks after treatment, 0-9 rating scale
In short: as §3

ORYSAT (Rice, Tebonnet) [18] = assay: Flooded paddy, post-transplant rice tolerance; format: in vivo, Oryza sativa, (L.) Tebonnet; settings: flooded paddy, post-transplant rice, rated 3-4 weeks after treatment, 0-9 rating scale
In short: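 Two ten-day-old Tebonnet rice seedlings transplanted into silt loam, then flooded with water held at 1.5–3 cm above soil; herbicide applied post-transplant. Plants kept in greenhouse and rated visually 0–9 versus untreated control for stand, vigor, malformation, size and chlorosis.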

Compound: CCOC(=O)C1CS[C@H](c2nsc3ccc(-n4c(=O)cc(C(F)(F)F)n(C)c4=O)cc23)N1 (stereo partly drawn) [Compound 2, ethyl (R)-2-[5-[3,6-dihydro-3-methyl-2,6-dioxo-4-(trifluoromethyl)-1(2H)-pyrimidinyl]-1,2-benzisothiazol-3-yl]-4-thiazolidinecarboxylate]
- Postemergence herbicidal rating, ABUTH ([1]; rate 0.0320 kg/ha): 9.0
- Postemergence herbicidal rating, ABUTH ([1]; rate 0.0620 kg/ha): 9.0
- Postemergence herbicidal rating, AMBEL ([2]; rate 0.0320 kg/ha): 7.0
- Postemergence herbicidal rating, AMBEL ([2]; rate 0.0620 kg/ha): 9.0
- Postemergence herbicidal rating, CASOB ([3]; rate 0.0320 kg/ha): 4.0
- Postemergence herbicidal rating, CASOB ([3]; rate 0.0620 kg/ha): 4.0
- Postemergence herbicidal rating, CHEAL ([4]; rate 0.0320 kg/ha): 9.0
- Postemergence herbicidal rating, CHEAL ([4]; rate 0.0620 kg/ha): 9.0
- Postemergence herbicidal rating, IPOHE ([5]; rate 0.0320 kg/ha): 9.0
- Postemergence herbicidal rating, IPOHE ([5]; rate 0.0620 kg/ha): 9.0
- Postemergence herbicidal rating, ECHCG ([6]; rate 0.0320 kg/ha): 3.0
- Postemergence herbicidal rating, ECHCG ([6]; rate 0.0620 kg/ha): 4.0
- Postemergence herbicidal rating, ORYSAT (ORYSAT (Rice, Tebonnet) [7]; rate 0.0320 kg/ha): 5.0
- Postemergence herbicidal rating, ORYSAT (ORYSAT (Rice, Tebonnet) [7]; rate 0.0620 kg/ha): 6.5
- Postemergence herbicidal rating, TRZAWR ([8]; rate 0.0320 kg/ha): 5.0
- Postemergence herbicidal rating, TRZAWR ([8]; rate 0.0620 kg/ha): 6.5
- Postemergence herbicidal rating, ZEAMX (ZEAMX (Corn, Field); rate 0.0320 kg/ha): 7.0
- Postemergence herbicidal rating, ZEAMX (ZEAMX (Corn, Field); rate 0.0620 kg/ha): 7.0
- ABUTH preemergence herbicidal rating ([9]; Rate 0.0620 kg/ha): 9.0
- ABUTH preemergence herbicidal rating ([9]; Rate 0.1250 kg/ha): 9.0
- ABUTH preemergence herbicidal rating ([9]; Rate 0.2500 kg/ha): 9.0
- AMBEL preemergence herbicidal rating ([10]; Rate 0.0620 kg/ha): 7.0
- AMBEL preemergence herbicidal rating ([10]; Rate 0.1250 kg/ha): 8.0
- AMBEL preemergence herbicidal rating ([10]; Rate 0.2500 kg/ha): 9.0
- CASOB preemergence herbicidal rating ([11]; Rate 0.0620 kg/ha): 5.0
- CASOB preemergence herbicidal rating ([11]; Rate 0.1250 kg/ha): 7.5
- CASOB preemergence herbicidal rating ([11]; Rate 0.2500 kg/ha): 7.0
- CHEAL preemergence herbicidal rating ([12]; Rate 0.0620 kg/ha): 9.0
- CHEAL preemergence herbicidal rating ([12]; Rate 0.1250 kg/ha): 9.0
- CHEAL preemergence herbicidal rating ([12]; Rate 0.2500 kg/ha): 9.0
- ORYSAT preemergence herbicidal rating (ORYSAT (Rice, Tebonnet) [13]; Rate 0.0620 kg/ha): 3.0
- ORYSAT preemergence herbicidal rating (ORYSAT (Rice, Tebonnet) [13]; Rate 0.1250 kg/ha): 6.0
- ORYSAT preemergence herbicidal rating (ORYSAT (Rice, Tebonnet) [13]; Rate 0.2500 kg/ha): 7.0
- TRZAWR preemergence herbicidal rating ([14]; Rate 0.0620 kg/ha): 2.0
- TRZAWR preemergence herbicidal rating ([14]; Rate 0.1250 kg/ha): 5.0
- TRZAWR preemergence herbicidal rating ([14]; Rate 0.2500 kg/ha): 7.0
- herbicidal rating, ECHORC ([15]; rate 0.0320 kg/ha): 0.0
- herbicidal rating, ECHORC ([15]; rate 0.1250 kg/ha): 2.0
- herbicidal rating, CYPSE ([16]; rate 0.0320 kg/ha): 0.0
- herbicidal rating, CYPSE ([16]; rate 0.1250 kg/ha): 0.0
- herbicidal rating, SAGPY ([17]; rate 0.0320 kg/ha): 0.0
- herbicidal rating, SAGPY ([17]; rate 0.1250 kg/ha): 0.0
- herbicidal rating, ORYSAT (rice tolerance) (ORYSAT (Rice, Tebonnet) [18]; rate 0.0320 kg/ha): 1.0
- herbicidal rating, ORYSAT (rice tolerance) (ORYSAT (Rice, Tebonnet) [18]; rate 0.1250 kg/ha): 4.0

Compound: Cn1c(C(F)(F)F)cc(=O)n(-c2ccc3snc(-c4cccs4)c3c2)c1=O [Compound 3, 1-methyl-3-[3-(2-thienyl)-1,2-benzisothiazol-5-yl]-6-(trifluoromethyl)uracil]
- Postemergence herbicidal rating, ABUTH ([1]; rate 0.0320 kg/ha): 9.0
- Postemergence herbicidal rating, ABUTH ([1]; rate 0.0620 kg/ha): 9.0
- Postemergence herbicidal rating, ABUTH ([1]; rate 0.1250 kg/ha): 9.0
- Postemergence herbicidal rating, AMBEL ([2]; rate 0.0320 kg/ha): 9.0
- Postemergence herbicidal rating, AMBEL ([2]; rate 0.0620 kg/ha): 9.0
- Postemergence herbicidal rating, AMBEL ([2]; rate 0.1250 kg/ha): 9.0
- Postemergence herbicidal rating, CASOB ([3]; rate 0.0320 kg/ha): 4.0
- Postemergence herbicidal rating, CASOB ([3]; rate 0.0620 kg/ha): 5.0
- Postemergence herbicidal rating, CASOB ([3]; rate 0.1250 kg/ha): 9.0
- Postemergence herbicidal rating, CHEAL ([4]; rate 0.0320 kg/ha): 9.0
- Postemergence herbicidal rating, CHEAL ([4]; rate 0.0620 kg/ha): 9.0
- Postemergence herbicidal rating, CHEAL ([4]; rate 0.1250 kg/ha): 9.0
- Postemergence herbicidal rating, IPOHE ([5]; rate 0.0320 kg/ha): 9.0
- Postemergence herbicidal rating, IPOHE ([5]; rate 0.0620 kg/ha): 9.0
- Postemergence herbicidal rating, IPOHE ([5]; rate 0.1250 kg/ha): 9.0
- Postemergence herbicidal rating, ECHCG ([6]; rate 0.0320 kg/ha): 2.0
- Postemergence herbicidal rating, ECHCG ([6]; rate 0.0620 kg/ha): 3.0
- Postemergence herbicidal rating, ECHCG ([6]; rate 0.1250 kg/ha): 4.0
- Postemergence herbicidal rating, ORYSAT (ORYSAT (Rice, Tebonnet) [7]; rate 0.0320 kg/ha): 3.0
- Postemergence herbicidal rating, ORYSAT (ORYSAT (Rice, Tebonnet) [7]; rate 0.0620 kg/ha): 4.0
- Postemergence herbicidal rating, ORYSAT (ORYSAT (Rice, Tebonnet) [7]; rate 0.1250 kg/ha): 4.5
- Postemergence herbicidal rating, TRZAWR ([8]; rate 0.0320 kg/ha): 2.5
- Postemergence herbicidal rating, TRZAWR ([8]; rate 0.0620 kg/ha): 4.5
- Postemergence herbicidal rating, TRZAWR ([8]; rate 0.1250 kg/ha): 5.0
- Postemergence herbicidal rating, ZEAMX (ZEAMX (Corn, Field); rate 0.0320 kg/ha): 5.0
- Postemergence herbicidal rating, ZEAMX (ZEAMX (Corn, Field); rate 0.0620 kg/ha): 5.5
- Postemergence herbicidal rating, ZEAMX (ZEAMX (Corn, Field); rate 0.1250 kg/ha): 6.5
- ABUTH preemergence herbicidal rating ([9]; Rate 0.0620 kg/ha): 8.5
- ABUTH preemergence herbicidal rating ([9]; Rate 0.1250 kg/ha): 9.0
- ABUTH preemergence herbicidal rating ([9]; Rate 0.2500 kg/ha): 9.0
- AMBEL preemergence herbicidal rating ([10]; Rate 0.0620 kg/ha): 8.0
- AMBEL preemergence herbicidal rating ([10]; Rate 0.1250 kg/ha): 9.0
- AMBEL preemergence herbicidal rating ([10]; Rate 0.2500 kg/ha): 9.0
- CASOB preemergence herbicidal rating ([11]; Rate 0.0620 kg/ha): 4.0
- CASOB preemergence herbicidal rating ([11]; Rate 0.1250 kg/ha): 4.5
- CASOB preemergence herbicidal rating ([11]; Rate 0.2500 kg/ha): 5.5
- CHEAL preemergence herbicidal rating ([12]; Rate 0.0620 kg/ha): 9.0
- CHEAL preemergence herbicidal rating ([12]; Rate 0.1250 kg/ha): 9.0
- CHEAL preemergence herbicidal rating ([12]; Rate 0.2500 kg/ha): 9.0
- ORYSAT preemergence herbicidal rating (ORYSAT (Rice, Tebonnet) [13]; Rate 0.0620 kg/ha): 6.0
- ORYSAT preemergence herbicidal rating (ORYSAT (Rice, Tebonnet) [13]; Rate 0.1250 kg/ha): 5.0
- ORYSAT preemergence herbicidal rating (ORYSAT (Rice, Tebonnet) [13]; Rate 0.2500 kg/ha): 5.0
- TRZAWR preemergence herbicidal rating ([14]; Rate 0.0620 kg/ha): 4.0
- TRZAWR preemergence herbicidal rating ([14]; Rate 0.1250 kg/ha): 5.0
- TRZAWR preemergence herbicidal rating ([14]; Rate 0.2500 kg/ha): 6.0
- herbicidal rating, ECHORC ([15]; rate 0.0080 kg/ha): 2.0
- herbicidal rating, ECHORC ([15]; rate 0.0320 kg/ha): 8.0
- herbicidal rating, ECHORC ([15]; rate 0.1250 kg/ha): 9.0
- herbicidal rating, CYPSE ([16]; rate 0.0080 kg/ha): 0.0
- herbicidal rating, CYPSE ([16]; rate 0.0320 kg/ha): 6.5
- herbicidal rating, CYPSE ([16]; rate 0.1250 kg/ha): 6.5
- herbicidal rating, SAGPY ([17]; rate 0.0080 kg/ha): 0.0
- herbicidal rating, SAGPY ([17]; rate 0.0320 kg/ha): 1.0
- herbicidal rating, SAGPY ([17]; rate 0.1250 kg/ha): 5.5
- herbicidal rating, ORYSAT (rice tolerance) (ORYSAT (Rice, Tebonnet) [18]; rate 0.0080 kg/ha): 3.0
- herbicidal rating, ORYSAT (rice tolerance) (ORYSAT (Rice, Tebonnet) [18]; rate 0.0320 kg/ha): 3.5
- herbicidal rating, ORYSAT (rice tolerance) (ORYSAT (Rice, Tebonnet) [18]; rate 0.1250 kg/ha): 5.5
